Source: patent publication US20260108561A1, “COMPOSITION FOR CELL TRANSPLANTATION THERAPY AND THE USE THEREOF” (NATIONAL UNIVERSITY OF SINGAPORE, priority 2022, published 2026)

Tests used:
[1] = tested on: grafted NPCs in the ischemic core; assay: Survival and differentiation of NPCs transplanted into the ischemic core of photothrombotic stroke mice (immunohistochemistry, stereology); assay type: in vivo, SCID mice; details: for Cleaved-caspase3 immunostaining in grafted cells / Grafted (GFP+) cells in the stroke cavity: 7 days post transplantation; for Grafted (GFP+) cells in the stroke cavity: NPCs injected into ischemic core 2 weeks after stroke; for Gross appearance of the cortex: 30 days post transplantation; for Survival of grafted NPCs (overall conclusion): NPCs transplanted into the ischemic core
Method: All animal studies were performed in accordance with the institutional animal care and use committee at Duke-NUS Medical School. Ischemic strokes in adult (10-12 weeks) male SCID mice were induced through photo-thrombosis. Briefly, Rose Bengal was administered intravenously at a dose of 0.1 mg/g per mouse. Mouse skull was exposed under 2% isoflurane anaesthesia. The right motor cortex (anterior-posterior [AP]=+2 mm, lateral [L]=+1 mm) received a 2.5-mm diameter illumination of cold light through the intact skull for 15 min. Animals were randomly grouped and transplanted with forebrain glutamatergic precursors.
Animals were sacrificed with a lethal dose of pentobarbital (250 mg/kg) and immediately perfused with PBS followed by 4% cold paraformaldehyde (PFA). The brain samples were fixed in cold PFA for 2 hours and immersed in 30% sucrose at 4° C. for around 4 days until sunk. Serial coronal (1.54 mm to-0.22 mm from Bregma) sections were collected on a freezing microtome at a 40-μm thickness and stored at −20° C. For immunostaining, sections were incubated with blocking solution containing 10% normal donkey serum and 0.2% Triton-100 for 1 h at room temperature. Then sections were incubated with primary antibodies overnight at 4° C.
To quantify the population of DCX, SOX2, Ki67, NF and NeuN positive cells to total grafted cells (eGFP and Hoechst co-labelled), one brain slice was selected from every 6 serial slices on for stereological counting on Zeiss M1 Microscope with Stereo Investigator software (MBF Bioscience). In brief, immunolabeled slices were scanned on Zeiss M1 Microscope, grafts area was contoured manually, and then corresponding fluorescence labelled cells were unbiasedly counted. Population of cleaved-caspase3 expressing cells to total grafted cells was counted with ImageJ software. Data were replicated 4 to 6 times per group. To quantify the population of Brn2, Ctip2 and Foxp2 expressing cells to total GFP^+ cells on coverslips, all coverslips were scanned and captured by 20× objective with a confocal microscope (Nikon), and then was counted with ImageJ software. Data were replicated three times. All data were expressed as means±SEM.

[2] = tested on: CCR5, CCL3, CCL4, and CCL5 protein expression; assay: Western blotting of CCR5 and CCL3/4/5 in transplanted cortical tissue; assay type: in vivo, SCID mice; details: day 44 after ischemic lesion / 30 days post-transplantation; normalized to GAPDH
Method: Animals were anaesthetized and perfused with cold PBS at 2, 14 and 44 days after stroke. The injured cortices or grafts (an area with a radius of 1 mm from the epicenter) were dissected manually under a stereomicroscope (Zeiss) and stored at −80° C.
NPCs and neurons were washed using PBS and resuspended in RIPA buffer with protease inhibitor and phosphatase inhibitor. Samples were collected to 1.5 mL tubes on ice for 15 mins. For tissue samples, extracts were sonicated in cold RIPA buffer with protease/phosphatase inhibitors. All samples were quantified using Quick Start™ Bradford Protein Assay (Bio-RAD), and then Laemmli buffer (Bio-RAD) was added to each tube. Samples were heated at 95° C. for 5 mins and stored at −80° C. Total 15 μg of extract was loaded to each well on a 10% Bis-Tris pre-casted gel for electrophoresis.
After running at 120 V for 40 mins, proteins were transferred to PVDF membranes at 400 mA for 30 mins. […] Then membranes were incubated with primary antibodies overnight at 4° C.: anti-CCR5 (1:1000, Abcam, ab110103), anti-CCL3 (1:1000, Abcam, ab259372), anti-CCL4 (1:1000, Abcam, EP521Y), anti-CCL5 (1:1000, Thermo Fisher Scientific, 701030), anti-GAPDH (1:5000, Thermo Fisher Scientific, MA5-15738). The membranes were washed three times by 0.1% TBST and incubated with corresponding secondary antibodies at room temperature for 1 hour. The protein bands were presented by Enhanced Chemiluminescence Substrate (Promega) and visualized in Bio-RAD Chemidoc system. All intensity of bands was analysed by ImageJ software and normalized to corresponding GAPDH bands.

NPCs = assay: Apoptosis of cultured NPCs (cleaved-caspase3, TUNEL) under CCR5 ligands and CCR5 blockade; assay type: cell-based, Human; details: for Proportion of cleaved-caspase3+ cells in NPCs: single ligand 300 ng/mL, compared with the control group
Method: Induction of forebrain glutamate NPCs was done using the following procedure. Briefly, H9 hESCs or eGFP H9 hESCs were cultured on 6-well plates with Matrigel/vitronectin coated for one week. ESC colonies were gently blown off by 1 mL pipettes to form cell aggregates at day 0. Cell aggregates were cultured in flasks for 7 days with the neural induction medium (NIM) consisting of DMEM/F12, 1×N2 supplement, 1×NEAA, 2-μM SB431542, and 2-μM DMH-1. Cell aggregates were adhered to 6-well plates in the presence of NIM with 5% FBS for 6 hours, and then fresh NIM was changed. The aggregates were fed with NIM till neural rosette formation at day 16. The rosettes were gently blown off using 1 mL pipettes and suspended in flasks with NIM for 7 days. Then, NIM was changed every four days from day 23. The neural precursor cells (NPCs) were maintained in NIM till transplantation or immunostaining. NPCs were digested into single cells using TrypLE for 3 min at day 49. After one additional day of culture in NIM supplemented with 1×B27 and 100 nM compound E, the NPCs were collected for transplantation in ischemic stroke models. B-27 supplement is a defined yet complex mixture of antioxidant enzymes, proteins, vitamins, and fatty acids that are combined in optimized ratios to support neuronal survival in culture. Compound E is a γ-secretase inhibitor. For immunostaining, NPCs were seeded on glass coverslips and staining was performed after one-week culture.
(§1) To test the effects of CCR5 activation on NPCs and neurons, cells were seeded on Matrigel coated coverslips or 6-well plates and treated with overdose (300 ng/mL) ligands of CCR5. CCL3, CCL4, CCL5 and their combination (CCL3/4/5) were respectively added into NIM every other day. After four-day treatment, NPCs or neurons were collected for staining or immunoblotting.
(§2) 1×10^^5 NPCs were seeded on coverslips in each well of 24-well plate for two days to 50% confluency upon transduction at 37° C. in a humidified 5% C02 incubator. The lentiviral shRNAs (MOIs of 20) were used to infect NPCs overnight at 37° C. The medium containing lentiviral particles was removed from wells and replaced with […] fresh pre-warmed NIM. The infected NPCs were collected for immunostaining or western blotting at 5 days after transduction.
Sections were subsequently washed and incubated with corresponding secondary antibodies for 1 h at room temperature. Immunolabeled sections were mounted by Fluoromount-G with Hoechst. For TUNEL staining, cells on coverslips were fixed in PBS with 4% PFA for 30 mins, and then incubated with Terminal Deoxynucleotidyl Transferase (TdT) Equilibration buffer (Elabscience) at 37° C. for 30 mins. NPCs were incubated in labeling solution (Elabscience) with TdT enzyme at 37° C. for 1 hour.

CCR5 = molecular target: T1, CCR5 (Homo sapiens, UniProt P51681); assay: CCR5 expression on cultured NPCs (immunostaining, Western blotting); assay type: cell-based; details: immunostaining and Western blotting
T1 construct: endogenous in cells; host or cells: NPCs, immature and mature neurons differentiated from human H9 / eGFP-H9 embryonic stem cells
Method: as §1, §2
NPCs and neurons were washed using PBS and resuspended in RIPA buffer with protease inhibitor and phosphatase inhibitor. Samples were collected to 1.5 mL tubes on ice for 15 mins. […] All samples were quantified using Quick Start™ Bradford Protein Assay (Bio-RAD), and then Laemmli buffer (Bio-RAD) was added to each tube. […]
After running at 120 V for 40 mins, proteins were transferred to PVDF membranes at 400 mA for 30 mins. […] All intensity of bands was analysed by ImageJ software and normalized to corresponding GAPDH bands.

[3] = tested on: neurons in the penumbra area; details: 100 mg/kg, i.p. daily; cited from earlier work

T1 sequence (P51681 whole entry): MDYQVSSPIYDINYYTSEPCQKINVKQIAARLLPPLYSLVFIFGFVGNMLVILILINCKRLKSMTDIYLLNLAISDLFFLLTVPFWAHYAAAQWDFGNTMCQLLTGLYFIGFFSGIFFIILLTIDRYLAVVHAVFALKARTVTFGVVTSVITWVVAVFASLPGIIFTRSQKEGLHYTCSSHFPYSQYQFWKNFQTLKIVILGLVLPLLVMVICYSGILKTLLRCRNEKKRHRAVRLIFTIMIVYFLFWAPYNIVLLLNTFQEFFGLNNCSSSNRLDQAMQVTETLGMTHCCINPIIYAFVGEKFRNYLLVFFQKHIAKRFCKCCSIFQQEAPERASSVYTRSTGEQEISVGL

fibrinogen
Cleaved-caspase3 immunostaining in grafted cells [1]: strong fluorescence | Grafted (GFP+) cells in the stroke cavity [1]: observed in the stroke cavity | Gross appearance of the cortex [1]: collapsed cortex | Survival of grafted NPCs (overall conclusion) [1]: insufficient to improve the survival of grafted NPCs | Fate of grafted cells ([1]; one month post-transplantation): some surviving cells, which did not proliferate and became GFAP positive astrocytes | CCR5 level in transplanted cortical tissue [2]: did not downregulate | Level of CCL3, 4, 5 in transplanted cortical tissue [2]: did not show obvious difference

Maraviroc [reference compound]
Cleaved-caspase3 immunostaining in grafted cells [1]: strong fluorescence | Grafted (GFP+) cells in the stroke cavity [1]: few or no GFP^+ cells | Gross appearance of the cortex [1]: collapsed cortex | Survival of grafted NPCs (overall conclusion) [1]: insufficient to improve the survival of grafted NPCs | CCR5 level in transplanted cortical tissue [2]: did not downregulate | Level of CCL3, 4, 5 in transplanted cortical tissue [2]: did not show obvious difference | TUNEL+ cell population in NPCs under CCR5 blockade (NPCs; apoptosis induced by CCLs): reduced the proportion of TUNEL^+ NPCs | Expression of CCR5 in NPCs under CCR5 blockade (CCR5): without reducing the expression of CCR5 | Survival of neurons in the penumbra after stroke [3]: promoted the survival of those neurons and their synaptic connections

B1: CCL5: chemokine ligand 5, ligand of CCR5 (protein, UniProt P13501 24-91, looked up)
C-C motif chemokine 5: SPYSSDTTPCCFAYIARPLPRAHIKEYFYTSGKCSNPAVVFVTRKNRQVCANPEKKWVREYINSLEMS
Proportion of cleaved-caspase3+ cells in NPCs (NPCs): increased

B2: CCL4: chemokine ligand 4, ligand of CCR5 (protein, UniProt P13236 24-92, looked up)
C-C motif chemokine 4: APMGSDPPTACCFSYTARKLPRNFVVDYYETSSLCSQPAVVFQTKRSKQVCADPSESWVQEYVYDLELN
Proportion of cleaved-caspase3+ cells in NPCs (NPCs): increased

B3: CCL3: chemokine ligand 3, ligand of CCR5 (protein, UniProt P10147 24-92, looked up)
C-C motif chemokine 3: SLAADTPTACCFSYTSRQIPQNFIADYFETSSQCSKPGVIFLTKRSRQVCADPSEEWVQKYVSDLELSA
Proportion of cleaved-caspase3+ cells in NPCs (NPCs): increased
